Measurements: patent publication US6737383B1, “Herbicidal oxadiazolidines” (priority 1999, dated 2004)

Experiments:
cocklebur = assay: Test B pre/postemergence cocklebur; type: in vivo, Xanthium strumarium
How it was run: (§1)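 Herbicidal effect was estimated by eye on a ten-point control scale after plants spent twelve to sixteen days in a greenhouse following soil or foliar treatment. Foliar sprays targeted plants at one to four leaves; all doses were formulated in a non-phytotoxic solvent with surfactant.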

crabgrass = assay: Test B pre/postemergence crabgrass; type: in vivo, Digitaria sanguinalis
How it was run: as §1

rape = assay: Test B pre/postemergence rape; type: in vivo, Brassica napus
How it was run: as §1

soybean = assay: Test B pre/postemergence soybean; type: in vivo, Glycine max
How it was run: as §1

sugar beet = assay: Test B pre/postemergence sugar beet; type: in vivo, Beta vulgaris
How it was run: as §1

wild oat = assay: Test B pre/postemergence wild oat; type: in vivo, Avena fatua
How it was run: as §1

blackgrass = assay: Test B pre/postemergence blackgrass; type: in vivo, Alopecurus myosuroides
How it was run: as §1

bamyardgrass = assay: Test B flood test barnyardgrass; type: in vivo, Echinochloa crus-galli
How it was run: (§2)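 Read-out is a visual response score from 0 (no effect) to 10 (complete control), assigned by comparison with untreated controls. Treatment was applied at the 2-leaf stage, and plants stayed in the greenhouse for twelve to sixteen days before scoring.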

pigweed = assay: Test B pre/postemergence pigweed; type: in vivo, Amaranthus retroflexus
How it was run: as §1

purple nutsedge = assay: Test B pre/postemergence purple nutsedge; type: in vivo, Cyperus rotundus
How it was run: as §1

surinam grass = assay: Test B pre/postemergence surinam grass; type: in vivo, Brachiaria decumbens
How it was run: as §1

velvetleaf = assay: Test B pre/postemergence velvetleaf; type: in vivo, Abutilon theophrasti
How it was run: as §1

bedstraw = assay: Test B pre/postemergence bedstraw; type: in vivo, Galium aparine
How it was run: as §1

wheat = assay: Test B pre/postemergence wheat; type: in vivo, Triticum aestivum
How it was run: as §1

smallflower flatsedge = assay: Test B flood test smallflower flatsedge; type: in vivo, Cyperus difformis
How it was run: as §2

corn = assay: Test B pre/postemergence corn; type: in vivo, Zea mays
How it was run: as §1

[1] = Preemergence, Rate 62 g/ha, scale of 0 to 10 where 0 is no effect and 10 is complete control
[2] = Preemergence, Rate 250 g/ha, scale of 0 to 10 where 0 is no effect and 10 is complete control
[3] = Preemergence, Rate 500 g/ha, scale of 0 to 10 where 0 is no effect and 10 is complete control
[4] = Rate 62 g/ha, Postemergence, scale of 0 to 10 where 0 is no effect and 10 is complete control
[5] = Rate 250 g/ha, Postemergence, scale of 0 to 10 where 0 is no effect and 10 is complete control
[6] = Rate 500 g/ha, Postemergence, scale 0 to 10, 0 no effect, 10 complete control
[7] = Rate 125 g/ha, Postemergence, scale of 0 to 10 where 0 is no effect and 10 is complete control
[8] = Rate 125 g/ha, Preemergence, scale of 0 to 10 where 0 is no effect and 10 is complete control
[9] = Rate 62 g/ha, headed Pre-emergence (flood test species), scale 0 to 10 (0 no effect, 10 complete control)
[10] = Rate 125 g/ha, Pre-emergence, flood test species, scale 0 to 10 where 0 is no effect and 10 is complete control
[11] = Rate 250 g/ha, Pre-emergence, flood-test species, scale 0 to 10, 0 is no effect, 10 is complete control
[12] = Rate 500 g/ha, Pre-emergence, flood test species, scale 0 to 10 (0 no effect, 10 complete control)

Cc1ccccc1-n1c(=O)on(C(=O)N(c2cccc(F)c2)C(C)C)c1=O [Compound 269]
Cocklebur plant response rating (cocklebur; [1]): 0 | Cocklebur plant response rating (cocklebur; [2]): 0 | Plant response rating, Cocklebur (cocklebur; [3]): 0 | Cocklebur plant response rating (cocklebur; [4]): 0 | Plant response rating, Cocklebur (cocklebur; [5]): 1 | Cocklebur plant response rating (cocklebur; [6]): 2 | Crabgrass plant response rating (crabgrass; [1]): 0 | Crabgrass plant response rating (crabgrass; [2]): 3 | Plant response rating, Crabgrass (crabgrass; [3]): 6 | Crabgrass plant response rating (crabgrass; [7]): 0 | Crabgrass plant response rating (crabgrass; [8]): 2 | Plant response rating, Crabgrass (crabgrass; [5]): 0 | Crabgrass plant response rating (crabgrass; [6]): 1 | Rape plant response rating (rape; [1]): 0 | Rape plant response rating (rape; [2]): 0 | Plant response rating, Rape (rape; [3]): 0 | Rape plant response rating (rape; [7]): 0 | Rape plant response rating (rape; [8]): 0 | Plant response rating, Rape (rape; [5]): 0 | Rape plant response rating (rape; [6]): 0 | Soybean plant response rating (soybean; [1]): 0 | Soybean plant response rating (soybean; [2]): 0 | Plant response rating, Soybean (soybean; [3]): 4 | Soybean plant response rating (soybean; [7]): 1 | Soybean plant response rating (soybean; [8]): 0 | Plant response rating, Soybean (soybean; [5]): 3 | Soybean plant response rating (soybean; [6]): 3 | Sugarbeets plant response rating (sugar beet; [1]): 0 | Sugarbeets plant response rating (sugar beet; [2]): 0 | Plant response rating, Sugarbeets (sugar beet; [3]): 4 | Sugarbeets plant response rating (sugar beet; [7]): 0 | Sugarbeets plant response rating (sugar beet; [8]): 0 | Plant response rating, Sugarbeets (sugar beet; [5]): 0 | Sugarbeets plant response rating (sugar beet; [6]): 0 | Wild oats plant response rating (wild oat; [1]): 0 | Wild oats plant response rating (wild oat; [2]): 2 | Plant response rating, Wild oats (wild oat; [3]): 4 | Wild oats plant response rating (wild oat; [7]): 0 | Plant response rating, Wild oats (wild oat; [5]): 0 | Wild oats plant response rating (wild oat; [6]): 3 | Blackgrass plant response rating (blackgrass; [1]): 0 | Blackgrass plant response rating (blackgrass; [2]): 3 | Plant response rating, Blackgrass (blackgrass; [3]): 7 | Blackgrass plant response rating (blackgrass; [4]): 0 | Blackgrass plant response rating (blackgrass; [7]): 0 | Blackgrass plant response rating (blackgrass; [8]): 2 | Plant response rating, Blackgrass (blackgrass; [5]): 2 | Blackgrass plant response rating (blackgrass; [6]): 5 | Barnyardgrass plant response rating (bamyardgrass; [9]): 0 | Barnyardgrass plant response rating (bamyardgrass; [10]): 0 | Barnyardgrass plant response rating (bamyardgrass; [11]): 0 | Barnyardgrass plant response rating (bamyardgrass; [12]): 0 | Redroot pigweed plant response rating (pigweed; [1]): 0 | Redroot pigweed plant response rating (pigweed; [2]): 4 | Plant response rating, Redroot pigweed (pigweed; [3]): 4 | Redroot pigweed plant response rating (pigweed; [7]): 4 | Redroot pigweed plant response rating (pigweed; [8]): 0 | Plant response rating, Redroot pigweed (pigweed; [5]): 5 | Redroot pigweed plant response rating (pigweed; [6]): 6 | Nutsedge plant response rating (purple nutsedge; [1]): 0 | Nutsedge plant response rating (purple nutsedge; [7]): 0 | Nutsedge plant response rating (purple nutsedge; [8]): 0 | Plant response rating, Nutsedge (purple nutsedge; [5]): 0 | Nutsedge plant response rating (purple nutsedge; [6]): 0 | B. signalgrass plant response rating (surinam grass; [1]): 0 | B. signalgrass plant response rating (surinam grass; [2]): 6 | Plant response rating, B. signalgrass (surinam grass; [3]): 7 | B. signalgrass plant response rating (surinam grass; [4]): 0 | B. signalgrass plant response rating (surinam grass; [7]): 0 | B. signalgrass plant response rating (surinam grass; [8]): 6 | Plant response rating, B. signalgrass (surinam grass; [5]): 0 | B. signalgrass plant response rating (surinam grass; [6]): 0 | Velvetleaf plant response rating (velvetleaf; [1]): 0 | Velvetleaf plant response rating (velvetleaf; [2]): 0 | Plant response rating, Velvetleaf (velvetleaf; [3]): 0 | Velvetleaf plant response rating (velvetleaf; [7]): 0 | Velvetleaf plant response rating (velvetleaf; [8]): 0 | Plant response rating, Velvetleaf (velvetleaf; [5]): 3 | Velvetleaf plant response rating (velvetleaf; [6]): 3 | Bedstraw plant response rating (bedstraw; [1]): 0 | Bedstraw plant response rating (bedstraw; [2]): 0 | Plant response rating, Bedstraw (bedstraw; [3]): 0 | Bedstraw plant response rating (bedstraw; [7]): 4 | Bedstraw plant response rating (bedstraw; [8]): 0 | Plant response rating, Bedstraw (bedstraw; [5]): 4 | Bedstraw plant response rating (bedstraw; [6]): 7 | Wheat plant response rating (wheat; [1]): 0 | Wheat plant response rating (wheat; [2]): 0 | Plant response rating, Wheat (wheat; [3]): 0 | Wheat plant response rating (wheat; [7]): 0 | Wheat plant response rating (wheat; [8]): 0 | Plant response rating, Wheat (wheat; [5]): 2 | Wheat plant response rating (wheat; [6]): 4 | S. Flatsedge plant response rating (smallflower flatsedge; [9]): 0 | S. Flatsedge plant response rating (smallflower flatsedge; [10]): 0 | S. Flatsedge plant response rating (smallflower flatsedge; [11]): 0 | S. Flatsedge plant response rating (smallflower flatsedge; [12]): 0 | Corn plant response rating (corn; [1]): 0 | Corn plant response rating (corn; [2]): 0 | Plant response rating, Corn (corn; [3]): 0 | Corn plant response rating (corn; [4]): 0 | Corn plant response rating (corn; [7]): 0 | Corn plant response rating (corn; [8]): 0 | Plant response rating, Corn (corn; [5]): 0 | Corn plant response rating (corn; [6]): 0
